{
  "source": "paper PMC8788626",
  "about": "(Lung cancer (Amsterdam, Netherlands), 2017)",
  "key": {"[1]": {"test": "Plasma pharmacokinetics of dacomitinib and metabolite PF-05199265", "assay_type": "in vivo, patients", "settings": "for Pre-dose (0 h) plasma concentration, mean (CV%) / Pre-dose (0 h) plasma concentration, median: Cycle 0, Day 4, 45 mg dacomitinib q12 h"}, "[2]": {"test_system": "EGFR-mutant lung cancer", "settings": "first-line therapy, standard daily dosing, ARCHER 1050; cited from earlier work"}, "[3]": {"test_system": "EGFR-mutant lung cancers", "settings": "first line, subset with EGFR-mutant lung cancers; cited from earlier work"}, "[4]": {"test_system": "QT interval", "test": "ECG analysis of QTc interval change from baseline", "assay_type": "in vivo, patients"}, "[5]": {"test_system": "patients with advanced NSCLC", "settings": "in vivo"}, "[6]": {"test_system": "T790M-negative, otherwise molecularly unselected advanced NSCLC", "test": "Phase 2 study of intermittent pulse dacomitinib, efficacy, Cohort B", "assay_type": "in vivo, patients", "settings": "95% CI 1.0–3.3 months"}, "[7]": {"settings": "continuous daily dosing; cited from earlier work"}, "[8]": {"test_system": "lung cancers harboring EGFR T790M", "assay_type": "in vivo, patients", "settings": "Cohort A"}, "[9]": {"settings": "Cycle 0, Day 4, following 6 doses (q12 h) of 45 mg dacomitinib"}, "[10]": {"settings": "Cycle 1, Day 1, following 3 day washout after 6 doses (q12 h) of 45 mg dacomitinib"}, "[11]": {"settings": "Cycle 1, Day 4, following 5 doses (q12 h) of 60 mg dacomitinib"}},
  "note": "“And” between values parts separate entries of the source, which are not always exact repeats. Equal entries are not always repeated.",
  "data": [
    {"smiles": "O=C(/C=C/CN1CCCCC1)Nc1cc2c(Nc3ccc(F)c(Cl)c3)ncnc2cc1O", "note": "[PF-05199265]", "values": [
      {"measurement": "Pre-dose (0 h) plasma concentration, mean (CV%)", "setting": "[1]", "result": "7.1 ng/mL and 7.1 (161) ng/mL"},
      {"measurement": "Pre-dose (0 h) plasma concentration, median", "setting": "[1]", "result": 4.6, "unit": "ng/mL"},
      {"measurement": "AUC0–10, mean (CV%)", "setting": "[1]; [9]", "result": "75.0 (148) ng h/mL"},
      {"measurement": "AUC0–10, median", "setting": "[1]; [9]", "result": 50.8, "unit": "ng·h/mL"},
      {"measurement": "Cmax, mean (CV%)", "setting": "[1]; [9]", "result": "8.5 (150) ng/mL"},
      {"measurement": "Cmax, median", "setting": "[1]; [9]", "result": 5.9, "unit": "ng/mL"},
      {"measurement": "Cmin, mean (CV%)", "setting": "[1]; [9]", "result": "6.8 (157) ng/mL"},
      {"measurement": "Cmin, median", "setting": "[1]; [9]", "result": 4.5, "unit": "ng/mL"},
      {"measurement": "Tmax, median (minimum–maximum)", "setting": "[1]; [9]", "result": "5.6 (0–11.0) hr"},
      {"measurement": "Pre-dose plasma concentration, mean (CV%)", "setting": "[1]; [10]", "result": "3.8 (83) ng/mL"},
      {"measurement": "Pre-dose plasma concentration, median", "setting": "[1]; [10]", "result": 2.8, "unit": "ng/mL"},
      {"measurement": "Pre-dose plasma concentration, mean (CV%)", "setting": "[1]; [11]", "result": "9.0 (93) ng/mL"},
      {"measurement": "Pre-dose plasma concentration, median", "setting": "[1]; [11]", "result": 7.43, "unit": "ng/mL"}
    ]},
    {"smiles": "COc1cc2ncnc(Nc3ccc(F)c(Cl)c3)c2cc1NC(=O)/C=C/CN1CCCCC1", "note": "[dacomitinib]", "values": [
      {"measurement": "Pre-dose (0 h) plasma concentration, mean (CV%)", "setting": "[1]", "result": 76.4, "unit": "ng/mL"},
      {"measurement": "Pre-dose (0 h) plasma concentration, median", "setting": "[1]", "result": 68.4, "unit": "ng/mL"},
      {"measurement": "Pre-dose (0 h) plasma concentration, mean (CV%)", "setting": "[1]; listed as Dacomitinib", "result": "76.4 (43) ng/mL"},
      {"measurement": "Cmin, mean (CV%)", "setting": "[1]; [9]", "result": "71.3 (39) ng/mL"},
      {"measurement": "Cmin, median", "setting": "[1]; [9]", "result": 65.6, "unit": "ng/mL"},
      {"measurement": "Pre-dose plasma concentration, mean (CV%)", "setting": "[1]; [10]", "result": "32.1 (65) ng/mL"},
      {"measurement": "Pre-dose plasma concentration, median", "setting": "[1]; [10]", "result": 26.9, "unit": "ng/mL"},
      {"measurement": "Pre-dose plasma concentration, mean (CV%)", "setting": "[1]; [11]", "result": "108.1 (39) ng/mL"},
      {"measurement": "Pre-dose plasma concentration, median", "setting": "[1]; [11]", "result": 100, "unit": "ng/mL"},
      {"measurement": "Tmax", "setting": "[1]; human, plasma, oral, 45 mg", "result": 6.1, "unit": "h"},
      {"measurement": "AUC(0-t)", "setting": "[1]; human, plasma, oral, 45 mg, AUC0–10, mean (CV%), Cycle 0, Day 4, following 6 doses (q12 h) of 45 mg dacomitinib", "result": 794, "unit": "ng·h/mL"},
      {"measurement": "AUC(0-t)", "setting": "[1]; human, plasma, oral, 45 mg, AUC0–10, median, Cycle 0, Day 4, following 6 doses (q12 h) of 45 mg dacomitinib", "result": 728, "unit": "ng·h/mL"},
      {"measurement": "Cmax", "setting": "[1]; human, plasma, oral, 45 mg, mean (CV%), Cycle 0, Day 4, following 6 doses (q12 h) of 45 mg dacomitinib", "result": 96.8, "unit": "ng/mL"},
      {"measurement": "Cmax", "setting": "[1]; human, plasma, oral, 45 mg, median, Cycle 0, Day 4, following 6 doses (q12 h) of 45 mg dacomitinib", "result": 90.7, "unit": "ng/mL"},
      {"measurement": "median progression-free survival", "setting": "[2]", "result": 14.7, "unit": "months"},
      {"measurement": "estimated median progression-free survival", "setting": "[3]", "result": 18.2, "unit": "months"},
      {"measurement": "overall response rate", "setting": "[3]", "result": 76, "unit": "%"},
      {"measurement": "upper limits of the 95% CI for the mean change from baseline in QTc (QTcB, QTcF, QTcS)", "setting": "[4]; all Cycle 0 day 4 time points, 45 mg q12 h", "result": "< 10", "unit": "ms"},
      {"measurement": "effect on cardiac repolarization", "setting": "[4]; at exposures comparable to steady state of 45 mg daily regimen", "result": "no effects on cardiac repolarization"},
      {"measurement": "Grade 3 treatment-emergent lymphopenia", "setting": "[5]; human", "result": 13.2, "unit": "%"},
      {"measurement": "frequency of the most frequent treatment-related toxicities (diarrhea, rash, stomatitis, nausea, dry skin, paronychia, fatigue, decreased appetite)", "setting": "[5]; human", "result": "> 20 % of patients"},
      {"measurement": "treatment-related serious adverse events: dehydration", "setting": "[5]; human", "result": 2},
      {"measurement": "treatment-related serious adverse events: diarrhea", "setting": "[5]; human", "result": 2},
      {"measurement": "treatment-related serious adverse events: nausea", "setting": "[5]; human", "result": 1},
      {"measurement": "Grade 3 hypermagnesemia, patients", "setting": "[5]", "result": "three"},
      {"measurement": "number of treatment-related serious adverse events", "setting": "[5]", "result": "five"},
      {"measurement": "patients who discontinued study therapy due to a treatment-related adverse event", "setting": "[5]", "result": "No patients"},
      {"measurement": "patients with at least one treatment-related adverse event", "setting": "[5]", "result": "All patients"},
      {"measurement": "patients with treatment-related serious adverse events", "setting": "[5]", "result": "three"},
      {"measurement": "treatment-related cardiac adverse events", "setting": "[5]", "result": "no treatment-related cardiac adverse events"},
      {"measurement": "median PFS", "setting": "[6]", "result": 1.6, "unit": "months"},
      {"measurement": "maximum tolerated dose", "setting": "[7]", "result": 45, "unit": "mg daily"},
      {"measurement": "ORR (overall response rate)", "setting": "[8]; 16 patients, 95% CI 0.2%–30.2%, p-value = 0.15", "result": 6.3, "unit": "%"},
      {"measurement": "median PFS", "setting": "[8]; 95% CI 1.4–4.4 months", "result": 2.3, "unit": "months"}
    ]}
  ]
}
